Data reported in a melting point compilation (Tetko et al.).

melting point [°C]	SMILES
124	COc1ccc(C23C(=C(c4ccccc4)c4ccccc4)C4CC2C3(C)C4(C)C)cc1 (configuration not stated)
300	COC1OC(C(=O)O)C(OC2OC(C(=O)O)C(OC)C(O)C2O)C(O)C1O (configuration not stated)
83.5	COc1ccc2ccc(=O)oc2c1CC=C(C)C
46 to 47	O=Cc1cc(Br)cs1
65	COC(=O)c1cccc(C#N)c1
193 to 197	CCCCCCCCCCCC(=O)OC1OC(CO)C(OC2OC(CO)C(O)C(O)C2O)C(O)C1O (configuration not stated)
143	O=C(O)c1ccc(N2C(=O)C3ON=C(C(=O)c4ccc(Cl)cc4)C3C2=O)cc1 (configuration not stated)
74 to 77	CCCCCCCCC(=O)OC1CCC2(C)C(=CCC3C2CCC2(C)C(C(C)CCCC(C)C)CCC32)C1 (configuration not stated)
101	FC(Cl)(Cl)C(Cl)(Cl)Cl
164	CC(C)CC1=C/C(=C/c2ccc(-c3cccc([N+](=O)[O-])c3)o2)C(=O)O1
178 to 179	NNc1ncnc2sc3c(c12)CCCC3
140	Oc1ccc(Nc2ccc3ccccc3c2)cc1
202 to 203	c1cc(-c2cnc3ccccc3n2)cc(-c2cnc3ccccc3n2)c1
160	O=C(c1noc(-c2ccc([N+](=O)[O-])cc2)c1S(=O)(=O)c1ccccc1)c1cccc2ccccc12
60 to 62	O=C(c1ccc(F)cc1)N1CCCCC1
160 to 165	O=C(O)C1(c2ccc(F)cc2)CCCC1

melting point [°C]	SMILES
152	O=C1N(c2ccccc2)C(=O)[C@]2(Cl)C=C(c3ccccc3)[C@]12Cl
-135	CCO[Si](Cl)(Cl)Cl
219	CCOC(=O)c1c(C)cc(O)nc1O
82.5	CCCc1ccc(O)cc1O
77 to 78	O=S(=O)(Cl)c1cccc2nonc12
300	O=C(O)c1ccc2[nH]cnc2c1
105 to 107	O=C(c1ccccc1)c1cc2c(cc1Br)OCCCO2
30	Cc1nc(C)c(C=O)s1
79	Cc1cc(C)c(C)c(I)c1C
46 to 50	Clc1cc2ccccc2c2ccccc12
155	Cc1ccc(/C=C2\CN(S(=O)(=O)c3ccc(C)cc3)c3ccccc3N2S(=O)(=O)c2ccc(C)cc2)cc1
235	O=C1CCc2cc3c(cc2N1)NCCC3
37	FC(F)(F)c1cncc(C(F)(F)F)c1
107 to 109	CN1CCOc2cc(C#N)cnc21
320	CC(C)(C)c1nc2ccccc2[nH]1
217 to 218	Cc1ccc(Sc2ccc(C=CC(=O)O)cc2[N+](=O)[O-])cc1

Second part, the compound before the results:

SMILES	melting point [°C]
COc1ccc(C=Cc2ccccc2)cc1	135 to 138
Cn1cnc([N+](=O)[O-])c1Sc1ncnc2nc[nH]c12	244
FC(F)(F)C1N=NC(N=Cc2ccc(Cl)cc2)=N1 (configuration not stated)	234
O=C1NC(=O)C(=Cc2ccc(-c3ccccc3)o2)C(=O)N1	270
CCOP(=O)(OCC)ON1C(=O)c2cccc3cccc(c23)C1=O	177
N#Cc1c(F)cccc1Oc1ccc(F)cc1	73 to 74
CCCCCC#CC(=O)O	4
Cc1c(C#N)[nH]c2ccccc12	102 to 104
O=C(O)c1cccnc1Br	254
Oc1ccc(Br)cn1	180
CN(C)C(=S)SSC(=S)N(C)C	156
Cc1nccn1-c1ccc(CN)cc1	90.5 to 91.5
CC(=O)OC1C2=C(C(=O)C(OC(C)=O)C3(CC3C)C2=O)C2(C)CCCC(C)(C)C2C1O (configuration not stated)	172 to 173
Cc1cc(F)ccc1[N+](=O)[O-]	20
C=CC(=O)NC(O)C(O)NC(=O)C=C (configuration not stated)	142
CCCSP(=O)(OCC)Oc1ccc(Br)cc1Cl (configuration not stated)	< 25
CC(=O)c1ccc(S(C)(=O)=O)cc1	129 to 131
O=C(O)c1cc2nccnc2s1	220
O=C(O)CN(CCO)CCN(CC(=O)O)CC(=O)O	212 to 214
O=C1C(=O)C(Br)=C(Br)C(Br)=C1Br	143 to 148

SMILES	melting point [°C]
CCOC(=O)c1ccc(-n2c(C)ccc2C)cc1	88 to 90
CN(C)CCCNc1c2ccccc2nc2cccc([N+](=O)[O-])c12	134
CC1=C/C(=N/NC(N)=O)C(C(C)C)CC1 (configuration not stated)	219 to 220
CCCCNC(=O)OCC(C)(CCC)COC(N)=O (configuration not stated)	50
Brc1ccc2c(c1)OCOC2	49 to 51
CC(C)(C)CC(C)(C)S	-74
NC(=O)N1c2ccccc2CC(=O)c2ccccc21	216
CCCCCCCCCCCCCCCCC(=O)OCC	28
NC(Cc1c[nH]c2ccc(O)cc12)C(=O)O (racemic)	299
CCCCc1nc(CO)c[nH]1	94 to 97
O=C(NC(Cc1ccc(Br)s1)C(=O)O)OCC1c2ccccc2-c2ccccc21 (configuration not stated)	158
Oc1nnc(C2c3ccccc3Oc3ccccc32)o1	335 to 337
CC(CO)NC(=O)OC(C)(C)C (configuration not stated)	60
FC(F)(F)C(Cl)Br (configuration not stated)	-118
c1cnc2c(SSc3cccc4cccnc34)cccc2c1	205 to 206
NC1=NCC(c2ccccc2)O1 (configuration not stated)	136
N#Cc1c(F)cccc1Oc1ccccc1	92 to 96
COc1ccc(CC(=O)C(=O)O)cc1	194
OCc1ccc(I)cc1	73
CNN=C(N)C(S)=NNC	185

SMILES	melting point [°C]
O=C(O)CCc1ccccc1O	87
c1ccc(-c2nc[nH]c2-c2ccccc2)cc1	232
N#Cc1nccc2ccccc12	89
CC(=O)OC1(c2ccccc2)Cc2ccccc21 (configuration not stated)	76
O=S(=O)(O)c1ccc(Cl)cc1	102
C#CC1(O)CCC2C3CCC4=CCCCC4C3C(=C)CC21CC (configuration not stated)	110
Nc1ccc2c(c1)OCCCO2	81 to 82
ClCCCOc1ccccc1	12
Nc1ncnc2c1ncn2C1CCC(CO)O1 (configuration not stated)	185
O=C(c1ccc(Br)cc1)c1[nH]c2c(c1O)C(c1ccc(Br)cc1)c1c(c3ccccc3oc1=O)O2 (configuration not stated)	230
C#C[C@@]1(O)CC[C@@H]2[C@@H]3CC[C@@H]4CC(=O)CC[C@]4(C)[C@H]3CC[C@@]21C	220 to 221
Cc1ccc2cc(N)ccc2n1	190
COc1cc2c(cc1OC)C(c1ccc(O)cc1)N(C(C)=O)CC2 (configuration not stated)	145 to 147
CN(C)c1ccc(-c2ccc(N(C)C)cc2)cc1	194
CNCc1csc(C2CCN(C(=O)OC(C)(C)C)CC2)n1	43 to 47
C#CC	-103
Nc1ccc(C(F)(F)F)cc1Br	29.5
ClCc1csc(-c2ccccc2)n1	49 to 50
Cc1cc(C)c2ccccc2c1C	55.5
CN1C(=O)CN=C(c2ccccc2F)c2cc([N+](=O)[O-])ccc21	166
